In US8268825B2 (priority 2005, dated 2012):
Values after ≈ are worked out from the molar mass of the structure shown.

These compounds were tested against Bacillus anthracis DHFR (Bacillus anthracis, UniProt Q81R22) (assay: biochemical). Details: not given.
Chain of Bacillus anthracis DHFR (Q81R22 1-162): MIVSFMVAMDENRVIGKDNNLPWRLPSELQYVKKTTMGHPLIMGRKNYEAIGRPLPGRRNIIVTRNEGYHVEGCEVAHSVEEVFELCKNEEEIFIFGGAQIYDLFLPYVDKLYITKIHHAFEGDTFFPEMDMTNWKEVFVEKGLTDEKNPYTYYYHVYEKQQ

SMILES	IC50
COc1cc(Cc2cnc(N)nc2N)cc(/C=C/C(=O)N2N=Cc3ccccc3C2C2CCCCC2)c1OC (stereo not shown)	260 nM
COc1cc(Cc2cnc(N)nc2N)cc(/C=C/C(=O)N2N=Cc3ccccc3C2c2ccccc2)c1OCCN1CCOCC1 (stereo not shown)	170 nM
COc1cc(Cc2cnc(N)nc2N)cc(/C=C/C(=O)N2N=Cc3ccccc3C2C2CCCC2)c1OC (stereo not shown)	200 nM
CCCC1c2ccccc2C=NN1C(=O)/C=C/c1cc(Cc2cnc(N)nc2N)cc(OC)c1OC (stereo not shown)	54 nM
CCCCC1c2ccccc2C=NN1C(=O)/C=C/c1cc(Cc2cnc(N)nc2N)cc(OC)c1OC (stereo not shown)	170 nM
COc1cc(Cc2cnc(N)nc2N)cc(/C=C/C(=O)N2N=Cc3ccccc3C2c2ccccc2)c1OC.CS(=O)(=O)O (stereo not shown)	46 nM

What follows are compounds tested on Bacillus anthracis Sterne (assay: microbe, parasite or virus in culture). Details: 16 h, read-out: MIC B. anthracis (ug/ml).
Format: cell-based

SMILES	MIC
COc1cc(Cc2cnc(N)nc2N)cc(/C=C/C(=O)N2N=Cc3ccccc3C2C2CCCCC2)c1OC (stereo not shown)	≤ 13 µg/mL
COc1cc(Cc2cnc(N)nc2N)cc(/C=C/C(=O)N2N=Cc3ccccc3C2c2ccccc2)c1OCCN1CCOCC1 (stereo not shown)	≤ 32 µg/mL
COc1cc(Cc2cnc(N)nc2N)cc(/C=C/C(=O)N2N=Cc3ccccc3C2C2CCCC2)c1OC (stereo not shown)	≤ 26 µg/mL
CCCC1c2ccccc2C=NN1C(=O)/C=C/c1cc(Cc2cnc(N)nc2N)cc(OC)c1OC (stereo not shown)	13 µg/mL (≈ 26.7 µM)
CCCCC1c2ccccc2C=NN1C(=O)/C=C/c1cc(Cc2cnc(N)nc2N)cc(OC)c1OC (stereo not shown)	≤ 13 µg/mL
COc1cc(Cc2cnc(N)nc2N)cc(OC)c1OC [Trimethoprim, reference compound]	> 2000 µg/mL
COc1cc(Cc2cnc(N)nc2N)cc(/C=C/C(=O)N2N=Cc3ccccc3C2c2ccccc2)c1OC.CS(=O)(=O)O (stereo not shown)	26 µg/mL

These compounds were tested against T1, human DHFR (Homo sapiens, UniProt P00374) (assay: biochemical). Details: not given.
T1 sequence (P00374 1-187): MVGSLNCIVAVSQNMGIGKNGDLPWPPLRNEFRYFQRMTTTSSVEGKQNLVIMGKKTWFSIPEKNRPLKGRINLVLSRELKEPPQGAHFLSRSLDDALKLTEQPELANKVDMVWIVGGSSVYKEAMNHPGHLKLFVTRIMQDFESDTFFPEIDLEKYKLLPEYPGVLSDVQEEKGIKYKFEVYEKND

SMILES	IC50
COc1cc(Cc2cnc(N)nc2N)cc(/C=C/C(=O)N2N=Cc3ccccc3C2c2ccccc2)c1OCCN1CCOCC1 (stereo not shown)	> 16000 nM
COc1cc(Cc2cnc(N)nc2N)cc(/C=C/C(=O)N2N=Cc3ccccc3C2C2CCCC2)c1OC (stereo not shown)	> 21000 nM
CCCC1c2ccccc2C=NN1C(=O)/C=C/c1cc(Cc2cnc(N)nc2N)cc(OC)c1OC (stereo not shown)	110000 nM
